CNC(=O)[C@H]1O[C@@H](n2cnc3c(NCc4cc(Cl)ccc4OCc4snnc4C)ncnc32)[C@H](O)[C@@H]1N [Example 33, (2S,3S,4R,5R)3-Amino-5-{6-[5-chloro-2-(4-methyl-[1,2,3]thiadiazol-5-ylmethoxy)benzylamino]purin-9-yl}-4-hydroxytetrahydrofuran-2-carboxylic acid methylamide]
melting point: 107 to 110 °C

Source: patent US6803457B1, “Compounds for the treatment of ischemia” (Pfizer, Inc., priority 1999, dated 2004)
